Assays:
CTLL-2 = CTLL-2 proliferation; assay type: cell-based
Treg cells = assay: pSTAT5 concentration-response in human LRS-derived PBMC samples (flow cytometry): Treg cells; assay type: cell-based; conditions: ratio of pSTAT5 EC50 values; for CD8+/Treg ratio: Table 12; for CD8/Treg ratio: Table 4
Method: These studies were performed at PrimityBio LLC (Fremont, Calif.). […] Staining panel for flow cytometry study of LRS-derived PBMC samples include markers for Effector T cells (Teff: CD3+, CD4+, CD8+, CD127+), NK cells (CD3-, CD16+), and Regulatory T cells (Treg: CD3+, CD4+, CD8-, IL-2Rα+, CD127-1).
The EC50 values (pg/mL) was calculated from dose response curves generated from MFI plots.
These studies were performed at PrimityBio LLC (Fremont, Calif.). […] Staining panel for flow cytometry study of LRS-derived PBMC samples include markers CD4, CD4+ memory central, CD4+ memory effect, CD4+ memory T cells, CD4+ Naive T cells, CD4+ T cells, CD8, CD8+ memory central, CD8+ memory effect, CD8+ memory T cells, CD8+ Naive T cells, CD8+ T cells, NK cells, and T regulatory cells.
Conjugates of Table 12 were synthesized by modification of SEQ NO. 1. These studies were performed at PrimityBio LLC (Fremont, Calif.).
The EC50 values (pg/ml) were calculated from dose response curves generated from the MFI plots.

[1] = PK study E3826-U1704 in naïve C57BL/6 mice (human IL-2 ELISA of plasma); assay type: in vivo; conditions: for AUC0-t / AUCINF / CL / Cmax / Tmax / Vss (distribution volume) / t½: C57BL/6 female mice, single IV bolus 0.3 mg/kg, E62_5 kD from a separate study; for mean plasma concentrations measurable out to (post-dose): single IV bolus, 120 h = last measured time point
Method: Terminal blood samples were collected via cardiac puncture at the points indicated. […] Plasma and blood cells (in both studies) and tumors in study E3826-U1803 were collected for PK and PD analyses.
Bioanalysis of plasma samples was performed using a qualified human IL-2 ELISA assay (Abcam, Cambridge, UK). Concentrations of Aldesleukin, E62_30kD and P65_30kD and the internal standard in samples derived from plasma were determined using an ELISA assay. […] The PK data were imported into Phoenix WinNonlin v6.4 (Certara/Pharsight, Princeton, N.J.) for analysis. The group mean plasma concentration versus time data were analyzed with noncompartmental methods using an IV bolus administration model.

[2] = PK study of K35_30kD in C57BL/6 mice (Example 8); assay type: in vivo; conditions: male C57BL/6 mice
Method: The lyophilized test article was reconstituted in PBS, and nine male C57BL/6 mice were dosed with 0.3 and 3 mg/kg via intravenous tail vein injection for each dose group (see collection details below). Blood samples were collected at 0.08, 0.25, 0.5, 1, 2, 4, 8, 12, and 24 hours post dose. […] To adjust for ELISA-specific differences in sensitivity of kit detection of native and PEGylated compounds, native IL-2 and K35_30kD test article standard curves were generated using the test article diluent buffer, and data were analyzed with respect to respective standard curves. The data plotted represent the mean and SEM of three individual samples (biological replicates) as described above, and PK parameters for K35_30 kD test articles were extracted and summarized in Table 14.

H16_30kD: 30 kD PEGylated IL-2 conjugate at H16, made by modification of SEQ NO. 1 [Compound H16_30kD]
EC50, CTLL-2 proliferation (CTLL-2; Table 12): 80755 pg/mL
CD8+/Treg ratio (Treg cells): 345

E62_30kD: SEQ ID NO: 26: IL-2 (SEQ ID NO: 4) with E62 replaced by AzK conjugated to methoxy linear 30 kDa PEG [Compound E62_30kD]
EC50, CTLL-2 proliferation (CTLL-2; Table 4): 398,012 pg/mL
AUC0-t [1]: 37,100 h*ng/mL
AUCINF [1]: 37,100 h*ng/mL
CL [1]: 0.134 mL/min/kg
Cmax [1]: 4,230 ng/mL
Tmax [1]: 1.8 min
Vss (distribution volume) [1]: 0.0923 L/kg
t½ [1]: 14.500 h
mean plasma concentrations measurable out to (post-dose) [1]: 120 h
CD8/Treg ratio (Treg cells): 1.8

Q126_30kD: 30 kD PEGylated IL-2 conjugate at Q126, made by modification of SEQ NO. 1 [Compound Q126_30kD]
EC50, CTLL-2 proliferation (CTLL-2; Table 12): 3584 pg/mL
CD8+/Treg ratio (Treg cells): 670

N88_30kD: 30 kD PEGylated IL-2 conjugate at N88, made by modification of SEQ NO. 1 [Compound N88_30kD]
EC50, CTLL-2 proliferation (CTLL-2; Table 12): 66606 pg/mL
CD8+/Treg ratio (Treg cells): 34

K35_30kD: SEQ ID NO: 29: IL-2 (SEQ ID NO: 4) with K35 replaced by AzK conjugated to methoxy linear 30 kDa PEG [Compound K35_30kD]
CD8/Treg ratio (Treg cells): 176.0
AUC1/2extrap ([2]; 0.3 mg/kg single IV): 35.3%
AUCo-t/D ([2]; 0.3 mg/kg single IV): 128000 ng·h/mL
AUG0-∞ ([2]; 0.3 mg/kg single IV): 59600 ng·h/mL
Cmax ([2]; 0.3 mg/kg single IV): 6080 ng/mL
Cmax/D ([2]; 0.3 mg/kg single IV): 20300 kg·ng/mL/mg
Tmax ([2]; 0.3 mg/kg single IV): 0.250 h
t1/2 ([2]; 0.3 mg/kg single IV): 18.2 h
AUC1/2extrap ([2]; 3 mg/kg single IV): 37.4%
AUCo-t/D ([2]; 3 mg/kg single IV): 142000 ng·h/mL
AUG0-∞ ([2]; 3 mg/kg single IV): 679000 ng·h/mL
Cmax ([2]; 3 mg/kg single IV): 57700 ng/mL
Cmax/D ([2]; 3 mg/kg single IV): 19200 kg·ng/mL/mg
Tmax ([2]; 3 mg/kg single IV): 0.250 h
t1/2 ([2]; 3 mg/kg single IV): 19.5 h

K9_30kD: 30 kD PEGylated IL-2 conjugate at K9, made by modification of SEQ NO. 1 [Compound K9_30kD]
EC50, CTLL-2 proliferation (CTLL-2; Table 12): 504 pg/mL
CD8+/Treg ratio (Treg cells): 496

S127_30kD: 30 kD PEGylated IL-2 conjugate at S127, made by modification of SEQ NO. 1 [Compound S127_30kD]
EC50, CTLL-2 proliferation (CTLL-2; Table 12): 123 pg/mL
CD8+/Treg ratio (Treg cells): 615

D20_30kD: 30 kD PEGylated IL-2 conjugate at D20, made by modification of SEQ NO. 1 [Compound D20_30kD]
EC50, CTLL-2 proliferation (CTLL-2; Table 12): 689939 pg/mL
CD8+/Treg ratio (Treg cells): 8

N88R/D109_30kD: IL-2 variant N88R with 30 kD PEG at D109, made by modification of SEQ NO. 1
EC50, CTLL-2 proliferation (CTLL-2; Table 12): 59577 pg/mL
CD8+/Treg ratio (Treg cells): 71

T123_30kD: 30 kD PEGylated IL-2 conjugate at T123, made by modification of SEQ NO. 1 [Compound T123_30kD]
EC50, CTLL-2 proliferation (CTLL-2; Table 12): 255 pg/mL
CD8+/Treg ratio (Treg cells): 569

E62K: IL-2 variant with residue substitution E62K, not PEGylated [Compound E62K]
EC50, CTLL-2 proliferation (CTLL-2; Table 4): 58,213 pg/mL
CD8/Treg ratio (Treg cells): 5.8

M23_30kD: 30 kD PEGylated IL-2 conjugate at M23, made by modification of SEQ NO. 1 [Compound M23_30kD]
EC50, CTLL-2 proliferation (CTLL-2; Table 12): 1102 pg/mL
CD8+/Treg ratio (Treg cells): 524

L19_30kD: 30 kD PEGylated IL-2 conjugate at L19, made by modification of SEQ NO. 1 [Compound L19_30kD]
EC50, CTLL-2 proliferation (CTLL-2; Table 12): 3510 pg/mL
CD8+/Treg ratio (Treg cells): 241

E100_30kD: 30 kD PEGylated IL-2 conjugate at E100, made by modification of SEQ NO. 1 [Compound E100_30kD]
EC50, CTLL-2 proliferation (CTLL-2; Table 12): 1676 pg/mL
CD8+/Treg ratio (Treg cells): 405

E62_5kD: SEQ ID NO: 21: IL-2 (SEQ ID NO: 4) with E62 replaced by AzK conjugated to methoxy linear 5 kDa PEG [Compound E62_5kD]
EC50, CTLL-2 proliferation (CTLL-2; Table 4): 275,590 pg/mL
AUC0-t [1]: 798 ng·h/mL
AUCINF [1]: 807 ng·h/mL
CL [1]: 6.2 mL/min/kg
Cmax [1]: 936 ng/mL
Tmax [1]: 7.98 min
Vss (distribution volume) [1]: 0.404 L/kg
t½ [1]: 2.56 h
mean plasma concentrations measurable out to (post-dose) [1]: 12 h
CD8/Treg ratio (Treg cells): 2.3

N119_30kD: 30 kD PEGylated IL-2 conjugate at N119, made by modification of SEQ NO. 1 [Compound N119_30kD]
EC50, CTLL-2 proliferation (CTLL-2; Table 12): 1215 pg/mL
CD8+/Treg ratio (Treg cells): 268

V91K: IL-2 variant with substitution V91K [Compound V91K]
EC50, CTLL-2 proliferation (CTLL-2; Table 12): 99.5 pg/mL
CD8+/Treg ratio (Treg cells): 720

N26_30kD: 30 kD PEGylated IL-2 conjugate at N26, made by modification of SEQ NO. 1 [Compound N26_30kD]
EC50, CTLL-2 proliferation (CTLL-2; Table 12): 2594 pg/mL
CD8+/Treg ratio (Treg cells): 483

P65_5kD: SEQ ID NO: 20: IL-2 (SEQ ID NO: 4) with P65 replaced by AzK conjugated to methoxy linear 5 kDa PEG [Compound P65_5kD]
EC50, CTLL-2 proliferation (CTLL-2; Table 4): 194,924 pg/mL
CD8/Treg ratio (Treg cells): 2.2

T131_30kD: 30 kD PEGylated IL-2 conjugate at T131, made by modification of SEQ NO. 1 [Compound T131_30kD]
EC50, CTLL-2 proliferation (CTLL-2; Table 12): 641 pg/mL
CD8+/Treg ratio (Treg cells): 515

N88R: IL-2 variant with substitution N88R [Compound N88R]
EC50, CTLL-2 proliferation (CTLL-2; Table 12): 363 pg/mL
CD8+/Treg ratio (Treg cells): 1356
